# According to ChEMBL document CHEMBL3885861, “Open TG-GATES”:
# Species: Rattus norvegicus
# Experiment: Open TG-GATES - Regimen: Daily Repeat
# Assay type: toxicity, organism-based, Sprague-Dawley
# Set-up: regimen Daily Repeat, gender Male, age 6 weeks
# Conditions: in vivo, po, route gavage; for APTT / Bas / Eos / Fbg / Ht / Lym / MCHC / MCV / Mono / Neu / RBC / Ret / WBC / Hb: tissue Blood; for KIDNEY_L / KIDNEY_R / KIDNEY_TOTAL: tissue Kidney
# [1] = 20 mg/kg, 72 h, dose level Low, time 3 day
# [2] = 20 mg/kg, 72 h, tissue Plasma, dose level Low, time 3 day
# [3] = 20 mg/kg, […], dose level Low, time 7 day
# [4] = 20 mg/kg, […], dose level Low, time 14 day
# [5] = 20 mg/kg, […], dose level Low, time 28 day
# [6] = 20 mg/kg, […], tissue Plasma, dose level Low, time 7 day
# [7] = 20 mg/kg, […], tissue Plasma, dose level Low, time 14 day
# [8] = 20 mg/kg, […], tissue Plasma, dose level Low, time 28 day
# [9] = 60 mg/kg, 72 h, dose level Middle, time 3 day
structure (smiles),measurement,setting,value
CCCCC1C(=O)N(c2ccccc2)N(c2ccccc2)C1=O [PHENYLBUTAZONE],APTT,[1],16.6 s
same,Bas,[1],0%
same,Eos,[1],1%
same,Fbg,[1],220 mg/dL
same,Ht,[1],42.6%
same,Lym,[1],76.6%
same,MCHC,[1],33.4%
same,MCV,[1],66.3 fL
same,Mono,[1],8.4%
same,Neu,[1],14%
same,RBC,[1],643.4 x10_4/ul
same,Ret,[1],7.4%
same,WBC,[1],137.6 x10_2/uL
same,KIDNEY_L,[1],1 g
same,KIDNEY_R,[1],1 g
same,KIDNEY_TOTAL,[1],2 g
same,ALP,[2],895.4 IU/L
same,ALT,[2],37.2 IU/L
same,AST,[2],63.2 IU/L
same,BUN,[2],16 mg/dL
same,CRE,[2],0.6 mg/dL
same,Ca,[2],10.4 mg/dL
same,Cl,[2],106.4 meq/L
same,DBIL,[2],0 mg/dL
same,GLC,[2],195.6 mg/dL
same,IP,[2],8.1 mg/dL
same,K,[2],4.9 meq/L
same,PL,[2],170.4 mg/dL
same,RALB,[2],4 g/dL
same,TBIL,[2],0.3 mg/dL
same,TC,[2],86.2 mg/dL
same,TG,[2],125.8 mg/dL
same,TP,[2],6 g/dL
same,gamma-GTP,[2],1.6 IU/L
same,TERMINAL_BW,[3],263.4 g
same,TERMINAL_BW,[4],327.9 g
same,TERMINAL_BW,[5],390.6 g
same,APTT,[3],16.5 s
same,Bas,[3],0%
same,Eos,[3],0.8%
same,Fbg,[3],229.8 mg/dL
same,Hb,[3],14.3 g/dL
same,Ht,[3],42.8%
same,Lym,[3],85.2%
same,MCHC,[3],33.5%
same,MCV,[3],64.2 fL
same,Mono,[3],5%
same,Neu,[3],8.8%
same,RBC,[3],668 x10_4/ul
same,Ret,[3],5.4%
same,APTT,[4],16.2 s
same,Bas,[4],0%
same,Eos,[4],0.8%
same,Fbg,[4],226.8 mg/dL
same,Hb,[4],14.8 g/dL
same,Ht,[4],44.2%
same,Lym,[4],85%
same,MCHC,[4],33.5%
same,MCV,[4],62.7 fL
same,Mono,[4],4.4%
same,Neu,[4],10%
same,RBC,[4],705.2 x10_4/ul
same,Ret,[4],5.1%
same,WBC,[4],153 x10_2/uL
same,APTT,[5],15.5 s
same,Bas,[5],0%
same,Eos,[5],0.4%
same,Fbg,[5],239.4 mg/dL
same,Hb,[5],15.3 g/dL
same,Ht,[5],45.7%
same,Lym,[5],85.4%
same,MCHC,[5],33.5%
same,MCV,[5],58.2 fL
same,Mono,[5],4%
same,RBC,[5],786.8 x10_4/ul
same,Ret,[5],2.4%
same,WBC,[5],138.6 x10_2/uL
same,KIDNEY_L,[3],1.2 g
same,KIDNEY_R,[3],1.2 g
same,KIDNEY_TOTAL,[3],2.4 g
same,KIDNEY_L,[4],1.3 g
same,KIDNEY_R,[4],1.3 g
same,KIDNEY_TOTAL,[4],2.6 g
same,KIDNEY_L,[5],1.4 g
same,KIDNEY_R,[5],1.4 g
same,KIDNEY_TOTAL,[5],2.7 g
same,ALP,[6],882.4 IU/L
same,ALT,[6],30 IU/L
same,AST,[6],61.4 IU/L
same,BUN,[6],18.6 mg/dL
same,CRE,[6],0.5 mg/dL
same,Ca,[6],10.5 mg/dL
same,Cl,[6],105.8 meq/L
same,DBIL,[6],0 mg/dL
same,GLC,[6],193.6 mg/dL
same,IP,[6],7.7 mg/dL
same,K,[6],5.2 meq/L
same,RALB,[6],4 g/dL
same,TBIL,[6],0.3 mg/dL
same,TC,[6],77 mg/dL
same,TG,[6],119 mg/dL
same,TP,[6],6.7 g/dL
same,gamma-GTP,[6],1.4 IU/L
same,ALP,[7],735.2 IU/L
same,ALT,[7],27.6 IU/L
same,AST,[7],57.2 IU/L
same,BUN,[7],20.4 mg/dL
same,CRE,[7],0.6 mg/dL
same,Ca,[7],10.8 mg/dL
same,Cl,[7],107.6 meq/L
same,DBIL,[7],0.002 mg/dL
same,GLC,[7],201 mg/dL
same,IP,[7],8.2 mg/dL
same,K,[7],5 meq/L
same,RALB,[7],4 g/dL
same,TBIL,[7],0.3 mg/dL
same,TC,[7],71 mg/dL
same,TG,[7],165.4 mg/dL
same,TP,[7],6.2 g/dL
same,gamma-GTP,[7],1.2 IU/L
same,ALP,[8],633.6 IU/L
same,ALT,[8],31.6 IU/L
same,AST,[8],57.8 IU/L
same,BUN,[8],21 mg/dL
same,CRE,[8],0.6 mg/dL
same,Ca,[8],10.5 mg/dL
same,Cl,[8],106.8 meq/L
same,DBIL,[8],0.012 mg/dL
same,GLC,[8],193.2 mg/dL
same,IP,[8],7.3 mg/dL
same,K,[8],4.3 meq/L
same,RALB,[8],4.2 g/dL
same,TBIL,[8],0.3 mg/dL
same,TC,[8],65.2 mg/dL
same,TG,[8],208.8 mg/dL
same,TP,[8],6.5 g/dL
same,gamma-GTP,[8],1.8 IU/L
same,TERMINAL_BW,[9],231.9 g
same,APTT,[9],17.3 s
same,Bas,[9],0%
